# Like-named read-outs stand apart in the source and are kept apart here.
# Assays:
# [1] = system: MDA MB-231 cell line (Breast); assay: MTT cell proliferation assay, MDA MB-231; format: cell-based, human; conditions: read-out: IC50 μM MDA MB-231 (Breast)
# Experimental: (§1) Cell Culture: The human breast cancer epithelial cell lines MDA-MB-231 (HTB-26™), MCF-7 (HTB-22™), colon cancer cell lines HCT 116 (CCL-247™) and […] (CCL-244™) were obtained from American Type Culture Collection (ATCC). Additionally, KAIMRC1 cell line was isolated and developed at KAIMRC from a breast cancer patient. All the cells were grown in advanced DMEM containing 10% fetal bovine serum (FBS), 50 units/mL penicillin, 50 ug/mL streptomycin (GIBCO), and 2 mM glutamine (GIBCO). The cells were cultured at 37° C. in a humidified 5% CO2 atmosphere for 24 hours before experimental procedure.
# (§2) Cell Proliferation Assay (MTT): Cells were plated on flat-bottom 96-well plates at a density of 5×10^3 cells/well in 100 μL growth medium. Serial dilutions of the compounds, ranging from 100 nM-100 μM were tested on the cells in triplicates. Additional rows with only the compounds and only cells were added in order to account for the compounds and cells effect. Cells were incubated with compounds for 48 h at 37° C. with 5% CO2.
# (§3) After 48 h treatment, the cell viability was determined using the MTT viability assay. Briefly, 5 μL of MTT reagent (5 mg/mL stock) per 95 μl cell culture medium was added to each well and incubated for 3 h at 37° C. with 5% CO2. After 3 h the supernatant was removed, and the MTT formazan crystals were dissolved in dimethyl sulfoxide (DMSO) by shaking the plate for 30 mins at RT. The absorbance was measured on Molecular Devices microplate absorbance reader at 560 nm. The percentage of viable cells was calculated as the ratio of the absorbance of the treated group divided by the absorbance of the control group multiplied by 100. The absorbance from the untreated control cells was set as 100% viable. IC50 values were calculated from dose-response curves generated using a polynomial dose-response approximation using Prism 8 software. The IC50 values (µM) obtained for the compounds of present invention on MDA-MD 231 (breast), MCF-7 (breast), KAIMRC1 (breast), HCT116 (colon) and HCT8 (colon) are summarized in Table 5 and 6.
# [2] = system: MCF-7 (Breast); assay: MTT cell proliferation assay, MCF-7; format: cell-based, human; conditions: read-out: IC50 μM MCF-7 (Breast)
# Experimental: as §1, §2, §3
# [3] = system: HCT116 (Colon); assay: MTT cell proliferation assay, HCT116; format: cell-based, human; conditions: read-out: IC50 μM HCT116 (Colon)
# Experimental: as §1, §2, §3
# [4] = system: HCT 8 (Colon); assay: MTT cell proliferation assay, HCT 8; format: cell-based, human; conditions: read-out: IC50 μM HCT 8 (Colon)
# Experimental: as §1, §2, §3
# [5] = system: KAIMRC1 (Breast); assay: MTT cell proliferation assay, KAIMRC1; format: cell-based, human; conditions: read-out: IC50 μM KAIMRC1 (Breast)
# Excerpt: The immortalized cell lines included in the testing panel of this disclosure are MCF7 (a breast cancer cell line), MCF10 (immortalized human breast epithelial cells), MDA-MB231 (an epithelial, human breast cancer cell line that was established from a pleural effusion of a patient with a metastatic mammary adenocarcinoma), KAIMRC1 (a naturally immortalized human breast carcinoma cell line), KAIMRC2 (a naturally immortalized breast cancer cell line). The primary cells available for lead toxicity assays are, without limitation: hepatocytes (supplied by Xenotech, Bioscience Lonza, Accegen, Biocompare, Gibco, Zen-Bio, Takarabio, AxolBio, Creative Bioarray), cardiomyocytes (supplied by Cellartis, Axolbio, Cedarlanelabs, EMD Millipore, Takara Bio, Neuromics, AcceGene), primary neurons (AcceGen, Cellapplications, Neuromics, Biocompare, AxolBio, BrainXcell), endothelial lining (Thermofisher, Accegen, Biocompare, Promocell, ATCC). Multicellular 3D organoids raised by differentiating iPSC (induced pluripotent stem cells) are provided by Sigma Aldrich (the iPSC cell lines, organoids), Tocris Bioscience, Thermofisher, Stemcell Technologies, Takara Bio, Emulatebio (Human organ chips), Prodolabs.
# as §1, §2, §3
# [6] = system: HL 60 (leukemia); assay: Cell Titre Glo luminescent cell viability assay, HL 60; format: cell-based; conditions: Cell Titre Glo luminescence, normalized to DMSO controls
# Excerpt: (§4) Another embodiment discloses Titer Glo Assay for the characterization of the synthesized compounds. The CellTiter-Glo® Luminescent Cell Viability Assay is a homogeneous method of determining the number of viable cells in culture based on quantitation of the ATP present, an indicator of metabolically active cells. The CellTiter-Glo® Assay is designed for use with multiwell formats, making it ideal for automated high-throughput screening (HTS), cell proliferation, and cytotoxicity assays. The homogeneous assay procedure involves adding the single reagent (CellTiter-Glo® Reagent) directly to cells cultured in serum-supplemented medium. Cell washing, removal of medium, and multiple pipetting steps are not required. The system detects as few as 15 cells/well in a 384-well format in 10 minutes after adding reagent and mixing.
# as §1
# (§5) Cell Titre Glo assay was performed on two Leukemia cell lines, HL 60 and ThP1 as per manufacturer's (Promega) recommendations. Briefly, plates were prepared as mentioned in cell culture section. 100 µL of Cell Titre Glo was added directly to the wells. After incubation for 30 minutes at room temperature, luminescence was measured using the Envision plate reader (Perkin Elmer). Luminescence readings were normalized to averaged DMSO controls and expressed as relative percentage. IC50 values were calculated from dose-response curves generated using a polynomial dose-response approximation using Prism 8 software.
# [7] = system: ThP1 (leukemia); assay: Cell Titre Glo luminescent cell viability assay, ThP1; format: cell-based; conditions: Cell Titre Glo luminescence, normalized to DMSO controls
# Excerpt: as §4, §1, §5
# [8] = system: MDA-MD 231 (breast), MCF-7 (breast), KAIMRC1 (breast), HCT116 (colon) and HCT8 (colon); assay: MTT assay, review of Tables 5 and 6 (whole cell line panel); format: cell-based, human; conditions: review of Tables 5 and 6, MTT IC50
# Experimental: as §1, §2, §3
# The presence of nitrogen in certain positions of quinoline and/or iso-quinoline ring is the structure-activity determinant, and the subsequent variations in the nitrogen positions and substituents in this ring produce stronger leads by the methods of combinatorial expansion disclosed herein.
# [9] = Homo sapiens, MDA-MB-231, MTT, 48 h treatment, medium with 10% FBS
# [10] = Homo sapiens, MCF7, MTT, 48 h treatment, medium with 10% FBS
# [11] = Homo sapiens, HCT-116, MTT, 48 h treatment, medium with 10% FBS
# [12] = Homo sapiens, HCT-8, MTT, 48 h treatment, medium with 10% FBS
# [13] = Homo sapiens, MTT, 48 h treatment, medium with 10% FBS
# [14] = MTT, 48 h treatment, medium with 10% FBS
SMILES,"IC50 [1, 9]","IC50 [2, 10]","IC50 [3, 11]","IC50 [4, 12]","IC50 [5, 13]",also measured
"CC1(C)OC(=O)C(=CC=Cc2ccnc3ccccc23)C(=O)O1 [Example 11, 2,2-DIMETHYL-5-(3-QUINOLIN-4-YL-ALLYLIDENE)-[1,3]DIOXANE-4,6-DIONE]",14.1 µM,19.7 µM,10.4 µM,14.1 µM,33.2 µM,"IC50 ([6]; Homo sapiens, HL-60): 1.86 µM; IC50 ([7]; Homo sapiens, THP-1): 1.68 µM"
"O=C1OC2(CCCCC2)OC(=O)C1=CC=Cc1ccnc2ccccc12 [Example 17, 3-(3-QUINOLIN-4-YL-ALLYLIDENE)-1,5-DIOXA-SPIRO[5.5]UNDECANE-2,4-DIONE]",13 µM,17.3 µM,13.7 µM,12.9 µM,19.6 µM,–
"O=C1OC2(CCC2)OC(=O)C1=CC=Cc1ccnc2ccccc12 [Example 15, 7-(3-QUINOLIN-4-YL-ALLYLIDENE)-5,9-DIOXA-SPIRO[3.5]NONANE-6,8-DIONE]",7.84 µM,–,–,–,–,–
"CC1(C)OC(=O)C(=CC=Cc2cccc3ccccc23)C(=O)O1 [Example 18, 2,2-DIMETHYL-5-(3-NAPHTHALEN-1-YL-ALLYLIDENE)-[1,3]DIOXANE-4,6-DIONE]",–,–,–,5.78 µM,6.54 µM,–
"CCC1(C)OC(=O)C(=C/C=C/c2c3ccccc3cc3ccccc23)C(=O)O1 (stereo not drawn) [Example 2, 5-(3-ANTHRACEN-9-YL-ALLYLIDENE)-2-ETHYL-2-METHYL-[1,3]DIOXANE-4,6-DIONE]",25.2 µM,–,–,–,–,–
"CC1(C)OC(=O)C(=CC=Cc2cccc3occc23)C(=O)O1 [Example 32, 5-(3-BENZOFURAN-4-YL-ALLYLIDENE)-2,2-DIMETHYL-[1,3]DIOXANE-4,6-DIONE]",7.5 µM,–,34.2 µM,–,–,–
"CCC1(C)OC(=O)C(=CC=Cc2cccc3ccccc23)C(=O)O1 (stereo not drawn) [Example 19, 2 ETHYL,2-METHYL-5-(3-NAPHTHALEN-1-YL-ALLYLIDENE)-[1,3]DIOXANE-4,6-DIONE]",5.92 µM,5.82 µM,2.44 µM,2.95 µM,5.82 µM,–
"O=C1NC(=O)C(=C/C=C/c2ccnc3ccccc23)C(=O)N1 [Example 6, 5-(3-QUINOLIN-4-YL-ALLYLIDENE)-PYRIMIDINE-2,4,6-TRIONE]",–,–,–,–,–,"IC50 ([1]; Homo sapiens, MDA-MB-231, 48 h): 21.2 µM; IC50 ([2]; Homo sapiens, MCF7, 48 h): 31.9 µM; IC50 ([5]; Homo sapiens, 48 h): 18 µM"
"CCC1(C)OC(=O)C(=CC=Cc2ccc(OC)c3ccccc23)C(=O)O1 (stereo not drawn) [Example 21, 2-ETHYL-5-[3-(4-METHOXY-NAPHTHALEN-1-YL)-ALLYLIDENE]-2-METHYL-[1,3]DIOXANE-4,6-DIONE]",17 µM,–,50 µM,–,–,–
"CCC1(C)OC(=O)C(=C/C=C/c2ccncc2)C(=O)O1 (stereo not drawn) [Example 9, 2-ETHYL-2-METHYL-5-(3-PYRIDIN-4-YL-ALLYLIDENE)-[1,3]DIOXANE-4,6-DIONE]",5.03 µM,24.2 µM,3.54 µM,2.17 µM,21.6 µM,"IC50 ([7]; Homo sapiens, THP-1): 2.81 µM; range of activity compared with Mitoxanthrone [8]: range of activity that begins to overlap with that of Mitoxanthrone"
"O=C1NC(=O)C(=C/C=C/c2c3ccccc3cc3ccccc23)C(=O)N1 [Example 1, 5-(3-ANTHRACEN-9-YL-ALLYLIDENE)-PYRIMIDINE-2,4,6-TRIONE]",–,–,–,–,–,"IC50 ([1]; Homo sapiens, MDA-MB-231, 48 h): 52 µM; IC50 ([2]; Homo sapiens, MCF7, 48 h): 10.5 µM; IC50 ([3]; Homo sapiens, HCT-116, 48 h): 27.1 µM"
"CCCC1(C)OC(=O)C(=CC=Cc2ccnc3ccccc23)C(=O)O1 (stereo not drawn) [Example 14, 2-METHYL-2-PROPYL-5-(3-QUINOLIN-4-YL-ALLYLIDENE)-[1,3]DIOXANE-4,6-DIONE]",15.5 µM,15.2 µM,15.4 µM,18.9 µM,27.6 µM,–
"O=C1c2c(O)ccc(O)c2C(=O)c2c(NCCNCCO)ccc(NCCNCCO)c21 [Mitoxanthrone, reference compound]",–,–,–,–,–,"IC50 [1, 14]: 0.51 µM; IC50 [2, 14]: 3.61 µM; IC50 [3, 14]: 0.71 µM; IC50 [4, 14]: 1.25 µM; IC50 [5, 14]: 10.1 µM; IC50 [6]: 0.7 µM; IC50 [7]: 0.22 µM"
"CC1(C)OC(=O)C(=CC#Cc2cccc3ccccc23)C(=O)O1 [Example 28, 2,2-DIMETHYL-5-(3-NAPHTHALEN-1-YL-PROP-2-YNYLIDENE)-[1,3]DIOXANE-4,6-DIONE]",–,–,–,–,–,"IC50 ([4]; Homo sapiens, HCT-8, 48 h): 8.82 µM; IC50 ([5]; Homo sapiens, 48 h): 7.36 µM"
"CC1(C)OC(=O)C(=CC=Cc2cncc3ccccc23)C(=O)O1 [Example 10, 5-(3-ISOQUINOLIN-4-YL-ALLYLIDENE)-2,2-DIMETHYL-[1,3]DIOXANE-4,6-DIONE]",–,–,–,1.37 µM,4.45 µM,"IC50 ([7]; Homo sapiens, THP-1): 1.51 µM; range of activity compared with Mitoxanthrone [8]: range of activity that begins to overlap with that of Mitoxanthrone"
"O=C1OC2(CCC2)OC(=O)C1=CC=Cc1cccc2ccccc12 [Example 20, 7-(3-NAPHTHALEN-1-YL-ALLYLIDENE)-5,9-DIOXA-SPIRO[3.5]NONANE-6,8-DIONE]",–,4.24 µM,4.84 µM,3.87 µM,11.9 µM,"IC50 ([6]; Homo sapiens, HL-60): 2.41 µM; IC50 ([7]; Homo sapiens, THP-1): 2.04 µM"
"O=C1OC2(CCC2)OC(=O)C1=CC=Cc1cncc2ccccc12 [Example 16, 7-(3-ISOQUINOLIN-4-YL-ALLYLIDENE)-5,9-DIOXA-SPIRO[3.5]NONANE-6,8-DIONE]",–,5.44 µM,8.04 µM,6.01 µM,8.09 µM,–
